Experiments:
[1] = system: phosphate uptake in Caco-2 human intestinal epithelial cells; assay: Dosage effect on phosphate uptake inhibition in Caco-2 cells; format: cell-based; conditions: concentrations from 1 to 100 μM, FIG. 2
Method: Caco-2 cells were cultured in DMEM medium containing 20% Fetal Bovine Serum. Medium from the sub-confluent monolayer of Caco-2 cells was removed. The resulting cells were washed with either a sodium free buffer (137 mM choline chloride, 5.4 mM KCl, 2.8 mM CaCl2, 1.2 mM MgSO4, and 14 mM Tris-HCl at pH 7.4), or with a buffer that contained sodium (137 mM sodium chloride, 5.4 mM KCl, 2.8 mM CaCl2, 1.2 mM MgSO4, and 14 mM Tris-HCl at pH 7.4). After the wash, sodium or sodium free buffer comprising 1 μM of radiolabeled phosphate (K2H^32PO4,1 μCi/mL) and 100 μM of a small molecule having a phosphate group that was selected from the group containing Compounds 001-029 was added to the cells and they were incubated for 20 min at 37° C. Phosphate uptake was terminated by removing the uptake media and washing the cells with an ice-cold solution of 14 mM Tris-HCl, pH 7.4 that contained 137 mM of either choline chloride or sodium chloride. The monolayers of the cells were solubilized by the addition of a 1% solution of Triton X-100 to extract the radiolabeled phosphate. Aliquots of the radiolabeled phosphate were added to scintillation fluid and the radioactivity was determined by liquid scintillation counting. The difference between the assays using the two solutions with or without sodium represents the sodium dependent transport of phosphate.
The procedure of example 1 was repeated using C-002, C-004, C-012, and C-028 at concentrations from 1 to 100 μM. The results were recorded as the percent of phosphate uptake inhibition versus concentration of the small molecule having a phosphate group.

Male Sprague Dawley rats = assay: Maximum tolerated dose (MTD) in male Sprague Dawley rats; format: in vivo, rat; conditions: oral, daily, 0.5, 5 and 10 mg per kg for twelve days; for effect on weight gain: FIG. 5
Method: Male Sprague Dawley rats were given C-002, C-004, C-012, C-021, C-022, C-023, and C-028 orally and daily at doses of 0.5, 5 and 10 mg per kg for twelve days. The mortality and animal weight data were recorded.

[2] = system: Caco-2 human epithelial cells; assay: Caco-2 cell viability by trypan blue exclusion; format: cell-based; conditions: 100 μM compound, one hour of incubation, sodium or sodium free buffer; FIG. 4
Method: Trypan blue exclusion was used to determine the effect of C-002, 004, 012, and 028 on cell viability. The cells were plated in the same way as the ALAMAR BLUE stain test (see above). On the day of the test, media was removed, cells were washed with PBS and incubated with 100 μM (final concentration) of C-002, C-004, C-012 and C-028 in either a sodium free buffer (137 mM choline chloride, 5.4 mM KCl, 2.8 mM CaCl2, 1.2 mM MgSO4, and 14 mM Tris-HCl at pH 7.4), or with a buffer that contained sodium (137 mM sodium chloride, 5.4 mM KCl, 2.8 mM CaCl2, 1.2 mM MgSO4, and 14 mM Tris-HCl at pH 7.4). Testing was performed in duplicate. After 1 hour of incubation the cells were detached with trypsin/EDTA, transferred to an Eppendorf tube, and their viability was counted using 0.4% trypan blue stain (Invitrogen, Cat.#15250-061) in a 1:4 dilution with confocal microscopy.

[3] = system: Caco-2 human epithelial cells; assay: Caco-2 cell viability by ALAMAR BLUE stain reduction; format: cell-based; conditions: 100 μM compound, Caco-2 cells; FIG. 3; taken as nontoxic
Method: Staining was performed with ALAMAR BLUE stain in the presence of 100 μM C-002, C-004, C-012, and C-028 cells to exclude compound toxicity in the phosphorus transport assay. Caco-2 cells were plated into a 96-well plate in concentrations which gave about 16,000 cells/well on the day of the test (e.g., 8000 cells/well for a 1 day growth, 4000 cells/well for a 2 day growth, 2000 cell/well for a 3 day growth). On the day of the test, old media was replaced by 80 μL of fresh media per well with either a 100 μM final concentration of the small molecule having a phosphate group in DMSO, or with 1% of DMSO in the control wells. Testing was performed in duplicate. ALAMAR BLUE stain (BioSource International, Inc., Cat#DAL1100) was added at a final concentration of 10% into each well according to manufacturer instructions. The cells were then incubated at 37° C. for another 18 or 24 hours, and the reduction of ALAMAR BLUE stain by vital cells was measured spectrophotometrically at 570 nm and 600 nm. The results were calculated as the percent of reduction using the formula in the manufacturer's manual (TREK Diagnostic Systems, PI-DIAL 1025/1100 Rev 1.0).

SMILES	percent inhibition of phosphate uptake versus concentration [1]	mortality (Male Sprague Dawley rats)	effect on weight gain (Male Sprague Dawley rats)	viability of Caco-2 cells by trypan blue exclusion [2]	percent difference in ALAMAR BLUE stain reduction after 18 and 24 hours [3]
O=P(O)(O)c1c(Cl)c(Cl)nc(Cl)c1Cl [C-002]	increased with the concentration	No death	no significant effect	no significant effect	virtually unchanged
C=C(c1ccccc1)P(=O)(O)O [C-004]	increased with the concentration	No death	no significant effect	no significant effect	virtually unchanged
Cc1csc(Nc2ccc([N+](=O)[O-])cc2)[n+]1CCC(O)(P(=O)(O)O)P(=O)(O)O [C-012]	increased with the concentration	No death	no significant effect	no significant effect	virtually unchanged
O=P(O)(O)c1ccccc1OCCCl [C-021]		No death	no significant effect		
O=P(O)(O)c1ccccc1OCCCOc1ccccc1P(=O)(O)O [C-022]		No death	no significant effect		
O=P(O)(O)/C=C/c1ccccc1 [C-023]		No death	no significant effect		
O=P(O)(OC(c1ccccc1)C(F)(F)C(F)(F)C(F)(F)F)c1ccccc1 (centres unmarked) [C-028]	increased with the concentration	No death	no significant effect	no significant effect	virtually unchanged

Source: US9198923B2, “Phosphate management with small molecules” (OPKO IRELAND GLOBAL HOLDINGS, LTD., priority 2009, dated 2015)
